US20230052740A1, “MODULATORS OF CIRCADIAN RHYTHMS AND USES THEREOF” (The Regents of the University of California, priority 2019, published 2023)
pEC50: −log10 of the molar value. Read-outs that look alike come from different tables or passages of the source.

How the values were obtained:
[1] = biological target: T1, hMT1 (Homo sapiens, UniProt P48039); experiment: 2-[125I]-iodomelatonin competition binding, CHO cell membranes; conditions: CHO-hMT1; affinity shift by G protein inactivation
Protocol: For receptor binding studies, '7447 was dissolved in 50% DMSO/50% ethanol for 13 mM stock solution, diluted 1/10 in 100% ethanol then 1/10 again in 50% ethanol/50% Tris-HCl buffer. Both '3384 and '4226 were dissolved in 100% ethanol for 13 mM stock solutions and then diluted 1/10 in 50% ethanol/50% Tris-HCl buffer. Further dilutions were done in Tris-HCl buffer.
Assays were incubated for 1 hour at 25° C. Bound radioligand was separated from freeby rapidvacuum filtration using glass microfiber filters (Whatman, Krackeler Scientific, Inc., Albany N.Y., USA) saturated in 0.5% polyethylenimine solution.
Affinity shifts or lack thereof with G protein inactivation indicate apparent efficacy (Lefkowitz, R. J. et al., J Biol Chem 251, 4686-4692, 1976) as ligands are classified as agonists (ΔpKi% MLT>20%), antagonists (ΔpKi% MLT<20%, >−20%), or inverse agonists (ΔpKi% MLT<−20%) accordingly.

[2] = system: C3H/HeN mice; experiment: Re-entrainment of running wheel activity after 6 h advance of dark onset (jet-lag model); assay type: in vivo; conditions: 30 μg/mouse s.c., 3 days, WT; in words
Text: Male and female C3H/HeN (C3H) wild-type (WT), MT1 knockout (MT1KO), and MT2 knockout (MT2KO) mice (average 6.28 months) used in this study were raised in our breeding colony at University at Buffalo. […] Genotype was confirmed using tail samples at the end of each experiment and was verified periodically during the tenure of the colony. The strains of mice in our breeding colony were re-derived periodically by backcrossing with WT mice to reduce genetic drift.
Mice were group housed (3-5 per cage) with corncob bedding in polycarbonate translucent cages (30×19 cm) and maintained in a 14/10 light-dark (LD) cycle (Zeitgeber time 0 or ZT0 corresponds to Lights ON and ZT 14 to Lights OFF) in temperature and humidity controlled rooms with ad libitum access to food and water in the Laboratory Animal Facility at the University at Buffalo. Light levels were 200-300 lux at the level of the cage. Treatments and animal care performed in the dark were under a dim red safelight (15 watts, Kodak 1A filter) with illuminance of less than 3-5 lux (Benloucif, S. & Dubocovich, M. L. J Biol Rhythms 11, 113-125, (1996). All experimental procedures using mice were conducted in accordance with guidelines set forth by the National Institutes of Health and approved by the University at Buffalo Institutional Animal Care and Use Committee.
Circadian rhythm phase was determined for each mouse using the onset of running wheel activity defined as CT12 (Circadian Time 12). Running wheel activity was measured continuously via magnetic microswitches detecting wheel revolutions with a computer equipped with Clocklab data collection Software™ (Actimetrics: Wilmette, Ill.). All actigraphy data was visualized and analyzed using ClockLab™ and MATLAB™ software. All mice were individually housed in cages (33×15 cm) equipped with running wheels in light-tight ventilated cabinets with controlled temperature and LD cycles (Phenome Technologies: Skokie, Ill.). Male and female mice were housed in separate cabinets for all experiments.
Male and female C3H WT, MT1KO, and MT2KO mice (3 to 6 months) were maintained under a 12:12 LD cycle for at least 2 weeks prior experimental manipulations to allow stable entrainment to dark onset before advance of the LD cycle. Actigraphy data was recorded as described above and all experiment protocols performed as described (Dubocovich, M. L. et al., J Pineal Res 39, 113-120, 2005). On the first day of treatment, the dark onset was advanced 6 h. […] Post treatment, mice were given 14-20 days to re-entrain running wheel activity onsets to the new dark onset. Using exported running wheel activity onsets from actograms, onset hours advanced each day were determined by subtracting this value each day from the average onset of running wheel activity for 3 days prior to treatment for each mouse. Further, using the data from this calculation combined with visualization of actograms, the number of days to reach stable re-entrainment was determined for each mouse.
All statistical analyses as described in further detail for each experiment were conducted using GraphPad Prism 8™ (La Jolla, Calif.). All data sets were visualized for normality using QQ plots of predicted vs. actual residuals. Actigraphy data was generated for visualization blind to treatment prior to the quantification and statistical analysis stages. […] Data in FIGS. 4F & 4G were compared via a two-way ANOVA (3×2: genotype x treatment) with Tukey's post hoc analyses (P<0.05). […]

[3] = biological target: T2, MT2 (Homo sapiens, UniProt P49286); experiment: cAMP assay (GloSensor), isoproterenol-stimulated cAMP in HEK cells; assay type: cell-based; set-up: expressed in transfected cells; host or cells: HEK-T (HEK-293 T) cells, co-transfected with GloSensor DNA; conditions: for Emax: normalized to melatonin response, read-out: MT2 % Emax (converted)
T2 sequence (P49286 1-362): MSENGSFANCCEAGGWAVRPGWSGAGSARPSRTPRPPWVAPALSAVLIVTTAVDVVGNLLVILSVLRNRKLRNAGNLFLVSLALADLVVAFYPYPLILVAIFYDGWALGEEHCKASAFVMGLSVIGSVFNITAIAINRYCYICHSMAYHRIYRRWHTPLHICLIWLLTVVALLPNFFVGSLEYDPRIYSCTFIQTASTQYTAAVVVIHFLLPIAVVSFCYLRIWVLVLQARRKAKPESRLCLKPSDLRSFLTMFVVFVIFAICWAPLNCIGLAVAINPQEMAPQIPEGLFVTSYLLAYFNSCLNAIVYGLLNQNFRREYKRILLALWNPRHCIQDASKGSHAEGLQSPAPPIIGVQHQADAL
Protocol: MT1 and MT2 receptors were tested using Promega's spilt luciferase based GboSensor cAMP biosensor technology. HEK-T cells were plated in 15 cm cell culture dish (at a density of 18 million cells) containing DMEM composed of 10% dialyzed FBS, 2 mM L-glutamine, 100 units/ml penicillin G, 100 μg/ml streptomycin for 4-6 hour. Then, cells were co-transfected with 8 μg of construct which encodes either MT1 or MT2 (de-Tangonized constructs) and […] of Glosensor DNA. […] The next day, cell medium were discarded and loaded with 20 μl of assay buffer (1×HBSS, 20 mM HEPES, pH 7.4, 0.1% BSA). To measure agonist activity of MT1 or MT2 receptor, 10 μl of test compound solution at 3× final concentration was added for 15 minutes followed by addition of 10 μl of luciferin/isoproterenol mixture (at a final concentration of 4 mM and 200 nM respectively) for another 15 mins for luminescence quantification. Then, plates were counted using SpectraMax luminescence reader (Molecular Device). Data were analyzed using GraphPad Prism 6.0.

[4] = biological target: T2, MT2; experiment: Ligand bias quantification (G protein vs β-arrestin pathway, melatonin as reference); assay type: cell-based; set-up: expressed in transfected cells; host or cells: HEK-T cells (Gi/cAMP arm) and HTLA cells (β-arrestin Tango arm); conditions: at MT2; bias factor 10^ΔΔLog(Emax/EC50)
[5] = biological target: T1, hMT1; experiment: cAMP assay (GloSensor), isoproterenol-stimulated cAMP in HEK cells; assay type: cell-based; set-up: expressed in transfected cells; host or cells: HEK-T (HEK-293 T) cells, co-transfected with GloSensor DNA; conditions: agonist; for Emax: normalized to melatonin response, read-out: MT1 % Emax (converted)
Protocol: HEK-293 T cells were maintained with complete Dulbecco's modified Eagle's medium (DMEM), which is composed of 10% fetal bovine serum (FBS), 2 mM L-glutamine, 100 units/ml penicillin G, 100 μg/ml streptomycin at 37° C. in the presence of 5% CO2
MT1 and MT2 receptors were tested using Promega's spilt luciferase based GboSensor cAMP biosensor technology. HEK-T cells were plated in 15 cm cell culture dish (at a density of 18 million cells) containing DMEM composed of 10% dialyzed FBS, 2 mM L-glutamine, 100 units/ml penicillin G, 100 μg/ml streptomycin for 4-6 hour. Then, cells were co-transfected with 8 μg of construct which encodes either MT1 or MT2 (de-Tangonized constructs) and […] of Glosensor DNA. Next day, transfected cells were seeded into poly-L-lysinecoated 384-well white clear bottom cell culture plates with complete DMEM with 1% dialized FBS at a density of 20,000 cells per well for another 24 h. The next day, cell medium were discarded and loaded with 20 μl of assay buffer (1×HBSS, 20 mM HEPES, pH 7.4, 0.1% BSA). To measure agonist activity of MT1 or MT2 receptor, 10 μl of test compound solution at 3× final concentration was added for 15 minutes followed by addition of 10 μl of luciferin/isoproterenol mixture (at a final concentration of 4 mM and 200 nM respectively) for another 15 mins for luminescence quantification. Then, plates were counted using SpectraMax luminescence reader (Molecular Device). Data were analyzed using GraphPad Prism 6.0.

T1 sequence (P48039 whole entry): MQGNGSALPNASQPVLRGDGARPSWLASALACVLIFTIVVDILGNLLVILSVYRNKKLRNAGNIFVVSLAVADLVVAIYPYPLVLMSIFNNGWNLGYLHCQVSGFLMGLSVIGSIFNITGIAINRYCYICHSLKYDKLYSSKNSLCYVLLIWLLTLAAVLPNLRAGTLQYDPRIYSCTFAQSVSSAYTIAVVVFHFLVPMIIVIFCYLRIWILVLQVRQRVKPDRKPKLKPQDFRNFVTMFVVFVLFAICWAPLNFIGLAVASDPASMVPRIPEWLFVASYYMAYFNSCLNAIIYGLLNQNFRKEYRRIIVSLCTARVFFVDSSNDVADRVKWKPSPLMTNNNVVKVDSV

Row | Compound | ΔpKi (pKi control − pKi inactive) [1] | rate of re-entrainment to the new light-dark cycle [2] | Emax ([3]; HEK293, Table 2, agonist) | MT2 pEC50 ([3]; Table 2, agonist) | Bias [4] | Emax ([5]; HEK293, Table 2) | MT1 pEC50 ([5]; Table 2) | selectivity for the MT2 receptor [3] | Emax ([3]; HEK293, Table 1, agonist) | pEC50 ([3]; agonist, read-out: EC50 at MT2) | Emax ([5]; HEK293, Table 1) | MT1 pEC50 ([5]; Table 1)
1 | COc1ccc2[nH]cc(CCNC(C)=O)c2c1 [Melatonin, reference compound] | 1.19 | accelerated re-entrainment | – | – | – | – | – | – | – | – | – | –
2 | COc1ccc2c(c1)N(Cc1ccn(C)c(=O)c1)CCO2 [ZINC608506688] | – | – | 89% | 8.60 ± 0.10 | 8.2 | 99% | 9.78 ± 0.13 | – | – | – | – | –
3 | COc1ccc2c(c1)N(Cc1ccc(C#N)c(OC)c1)CCO2 [ZINC442850041] | – | – | – | – | 0.046 | – | – | 25 fold | 97% | 9.33 | 99% | 7.91 ± 0.04
